Source: the NIST ThermoML archive (doi:10.1021/je0500577)

How the values were obtained:
[1] = xn = mol fraction of the nth substance listed
[2] = for surface tension liquid-gas: Drop volume; for mass density: 101.33 kPa, Liquid

ClC1CCCCC1 [chlorocyclohexane] + C1CCOC1
surface tension liquid-gas [mN/m], [1], Drop volume
Conditions | 298.15 K | 313.15 K
x1 = 0.0361 | – | 25.39
x1 = 0.0362 | 27.27 | –
x1 = 0.0727 | – | 25.56
x1 = 0.0728 | 27.43 | –
x1 = 0.1434 | – | 25.88
x1 = 0.1442 | 27.73 | –
x1 = 0.2257 | – | 26.25
x1 = 0.2258 | 28.07 | –
x1 = 0.3114 | 28.43 | 26.66
x1 = 0.4061 | 28.82 | 27.09
x1 = 0.5071 | – | 27.52
x1 = 0.5093 | 29.25 | –
x1 = 0.6163 | 29.68 | –
x1 = 0.6173 | – | 27.96
x1 = 0.7351 | – | 28.42
x1 = 0.7359 | 30.11 | –
x1 = 0.8582 | – | 28.89
x1 = 0.8602 | 30.54 | –
x1 = 0.9267 | 30.77 | –
x1 = 0.9291 | – | 29.16
x1 = 1 | 31.05 | 29.44

CC1CCCO1 (stereo not given) [2-methyltetrahydrofuran] + ClC1CCCCC1
[1], Drop volume, x2 = 0
Conditions | surface tension liquid-gas [mN/m]
298.15 K | 24.56
313.15 K | 23.02

BrC1CCCCC1 [bromocyclohexane] + CC1CCC(C)O1
[1], x1 = 1
Conditions | surface tension liquid-gas [mN/m]
298.15 K | 33.63
313.15 K | 32.98

CC1CCCO1 (stereo not given) [2-methyltetrahydrofuran] + BrC1CCCCC1
[1], Drop volume, x2 = 0
Conditions | surface tension liquid-gas [mN/m]
298.15 K | 24.56
313.15 K | 23.02

C1CCOCC1 [tetrahydropyran] + ClC1CCCCC1
[1], Drop volume, x2 = 0
Conditions | surface tension liquid-gas [mN/m]
298.15 K | 27.29
313.15 K | 25.46

C1CCOC1 [tetrahydrofuran]
[2]
Conditions | mass density [kg/m3] | surface tension liquid-gas [mN/m]
298.15 K | 882.1 | 27.12
313.15 K | – | 25.24

BrC1CCCCC1 [bromocyclohexane] + CC1CCCO1
surface tension liquid-gas [mN/m], [1], Drop volume
Conditions | 298.15 K | 313.15 K
x1 = 0.042 | 24.87 | 23.36
x1 = 0.0933 | 25.28 | 23.78
x1 = 0.1942 | 26.13 | 24.63
x1 = 0.2908 | 26.95 | 25.48
x1 = 0.3921 | 27.82 | 26.38
x1 = 0.5072 | 28.82 | 27.43
x1 = 0.5896 | 29.55 | 28.19
x1 = 0.6994 | 30.58 | 29.24
x1 = 0.8173 | 31.75 | 30.49
x1 = 0.9043 | 32.65 | 31.55
x1 = 0.9247 | 32.86 | 31.85
x1 = 1 | 33.63 | 32.98

CC1CCC(C)O1 (stereo not given) [2,5-dimethyltetrahydrofuran]
[2]
Conditions | mass density [kg/m3] | surface tension liquid-gas [mN/m]
298.15 K | 825.25 | 22.93
313.15 K | – | 21.5

ClC1CCCCC1 [chlorocyclohexane]
[2]
Conditions | mass density [kg/m3] | surface tension liquid-gas [mN/m]
298.15 K | 993.17 | 31.05
313.15 K | – | 29.44

BrC1CCCCC1 [bromocyclohexane]
[2]
Conditions | mass density [kg/m3] | surface tension liquid-gas [mN/m]
298.15 K | 1328.41 | 33.63
313.15 K | – | 32.98

BrC1CCCCC1 [bromocyclohexane] + C1CCOC1
surface tension liquid-gas [mN/m], [1], Drop volume
Conditions | 298.15 K | 313.15 K
x1 = 0.0528 | 27.39 | 25.66
x1 = 0.0909 | 27.62 | 25.94
x1 = 0.1919 | 28.31 | 26.67
x1 = 0.2954 | 29.06 | 27.39
x1 = 0.3997 | 29.82 | 28.12
x1 = 0.5057 | 30.56 | 28.88
x1 = 0.611 | 31.24 | 29.65
x1 = 0.7127 | 31.89 | 30.42
x1 = 0.8064 | – | 31.18
x1 = 0.8232 | 32.56 | –
x1 = 0.8937 | 32.98 | –
x1 = 0.8994 | – | 32
x1 = 0.9467 | 33.31 | 32.44
x1 = 1 | 33.63 | 32.98

ClC1CCCCC1 [chlorocyclohexane] + C1CCOCC1
surface tension liquid-gas [mN/m], [1], Drop volume
Conditions | 298.15 K | 313.15 K
x1 = 0.044 | – | 25.64
x1 = 0.0446 | 27.44 | –
x1 = 0.085 | 27.58 | –
x1 = 0.0854 | – | 25.82
x1 = 0.1668 | – | 26.17
x1 = 0.1673 | 27.88 | –
x1 = 0.2584 | 28.23 | –
x1 = 0.259 | – | 26.55
x1 = 0.3519 | 28.62 | –
x1 = 0.3527 | – | 26.94
x1 = 0.4499 | – | 27.33
x1 = 0.4501 | 29.01 | –
x1 = 0.5511 | 29.41 | –
x1 = 0.5923 | – | 27.91
x1 = 0.6578 | – | 28.17
x1 = 0.658 | 29.82 | –
x1 = 0.7676 | 30.24 | –
x1 = 0.7693 | – | 28.6
x1 = 0.8744 | 30.62 | –
x1 = 0.8809 | – | 29.02
x1 = 0.9385 | – | 29.22
x1 = 0.9393 | 30.84 | –
x1 = 1 | 31.05 | 29.44

C1CCOC1 [tetrahydrofuran] + ClC1CCCCC1
[1], Drop volume, x2 = 0
Conditions | surface tension liquid-gas [mN/m]
298.15 K | 27.12
313.15 K | 25.24

ClC1CCCCC1 [chlorocyclohexane] + CC1CCC(C)O1
[1], Drop volume, x1 = 1
Conditions | surface tension liquid-gas [mN/m]
298.15 K | 31.05
313.15 K | 29.44

CC1CCCO1 (stereo not given) [2-methyltetrahydrofuran]
[2]
Conditions | mass density [kg/m3] | surface tension liquid-gas [mN/m]
298.15 K | 849.4 | 24.56
313.15 K | – | 23.02

C1CCOCC1 [tetrahydropyran] + BrC1CCCCC1
[1], Drop volume, x2 = 0
Conditions | surface tension liquid-gas [mN/m]
298.15 K | 27.29
313.15 K | 25.46
